Non-standard residues stand in square brackets, D forms with d. No end group written: not given here. Phe(2-Cl) = N[C@@H](Cc1ccccc1Cl)C(=O)O; Tle = CC(C)(C)[C@H](N)C(=O)O
Assays:
Assay in all cases: tetrapeptide-ACC substrate cleavage kinetics
Assay type in all cases: biochemical
[1] = target: T1, human caspase-1 (Homo sapiens, UniProt P29466); details: Ac-P4-P3-P2-Asp-ACC substrate, 0.05-500 μM, 2-15 nM enzyme, 37°C, triplicate
T1 sequence (P29466 120-297 limits assumed): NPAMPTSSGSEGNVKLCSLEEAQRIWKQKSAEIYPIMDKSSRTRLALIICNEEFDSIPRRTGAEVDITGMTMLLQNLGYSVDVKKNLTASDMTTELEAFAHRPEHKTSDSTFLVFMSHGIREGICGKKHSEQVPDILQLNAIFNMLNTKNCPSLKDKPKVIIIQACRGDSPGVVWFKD
T1 sequence (P29466 317-404 limits assumed): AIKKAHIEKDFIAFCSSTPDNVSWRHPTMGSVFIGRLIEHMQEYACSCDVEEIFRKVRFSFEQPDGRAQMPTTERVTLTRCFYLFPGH

[2] = target: T2, human caspase-4 (Homo sapiens, UniProt P49662); details: Ac-P4-P3-P2-Asp-ACC substrate, 0.05-500 μM, 35-200 nM enzyme, 37°C, triplicate
T2 sequence (P49662 81-270 limits assumed): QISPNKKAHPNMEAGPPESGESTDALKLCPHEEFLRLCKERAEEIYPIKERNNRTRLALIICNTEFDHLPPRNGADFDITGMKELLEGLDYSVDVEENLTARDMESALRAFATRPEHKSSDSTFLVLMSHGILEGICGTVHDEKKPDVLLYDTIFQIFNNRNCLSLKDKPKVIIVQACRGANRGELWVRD
T2 sequence (P49662 290-377 limits assumed): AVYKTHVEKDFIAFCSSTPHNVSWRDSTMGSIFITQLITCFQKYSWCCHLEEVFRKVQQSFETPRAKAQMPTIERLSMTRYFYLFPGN

[3] = target: T3, human caspase-5 (Homo sapiens, UniProt P51878); details: Ac-P4-P3-P2-Asp-ACC substrate, 0.05-500 μM, 20-250 nM enzyme, 37°C, triplicate
T3 sequence (P51878 137-327 limits assumed): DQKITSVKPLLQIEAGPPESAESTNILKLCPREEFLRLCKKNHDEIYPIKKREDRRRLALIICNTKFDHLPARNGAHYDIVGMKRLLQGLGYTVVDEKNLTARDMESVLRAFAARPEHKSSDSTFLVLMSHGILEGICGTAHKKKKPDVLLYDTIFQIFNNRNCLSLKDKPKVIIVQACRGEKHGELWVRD
T3 sequence (P51878 347-434 limits assumed): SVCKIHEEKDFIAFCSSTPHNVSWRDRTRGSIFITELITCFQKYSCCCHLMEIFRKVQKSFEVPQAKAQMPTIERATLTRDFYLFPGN

[4] = target: T4, human caspase-3 (Homo sapiens, UniProt P42574); details: Ac-P4-P3-P2-Asp-ACC substrate, 0.05-500 μM, 3-35 nM enzyme, 37°C, triplicate
T4 sequence (P42574 29-175 limits assumed): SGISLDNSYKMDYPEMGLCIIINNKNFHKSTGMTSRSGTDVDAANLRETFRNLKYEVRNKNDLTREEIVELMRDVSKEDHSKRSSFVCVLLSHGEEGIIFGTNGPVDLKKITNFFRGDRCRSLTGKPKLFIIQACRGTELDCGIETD
T4 sequence (P42574 176-277 limits assumed): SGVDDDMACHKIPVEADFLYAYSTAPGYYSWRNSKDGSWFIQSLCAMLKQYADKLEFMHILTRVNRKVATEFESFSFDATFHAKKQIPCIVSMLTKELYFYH

[5] = target: T5, human caspase-7 (Homo sapiens, UniProt P55210); details: Ac-P4-P3-P2-Asp-ACC substrate, 0.05-500 μM, 40-400 nM enzyme, 37°C, triplicate
T5 sequence (P55210 24-198 limits assumed): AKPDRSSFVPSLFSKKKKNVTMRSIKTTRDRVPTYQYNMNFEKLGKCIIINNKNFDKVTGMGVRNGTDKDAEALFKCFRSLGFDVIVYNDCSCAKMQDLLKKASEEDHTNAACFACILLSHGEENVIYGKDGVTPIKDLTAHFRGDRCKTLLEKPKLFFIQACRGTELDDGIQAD
T5 sequence (P55210 207-303 limits assumed): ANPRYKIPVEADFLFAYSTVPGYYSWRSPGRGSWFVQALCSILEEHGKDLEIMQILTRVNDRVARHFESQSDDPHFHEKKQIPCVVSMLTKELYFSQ

[6] = target: human caspase-8 (Homo sapiens, UniProt Q14790); details: Ac-P4-P3-P2-Asp-ACC substrate, 0.05-500 μM, 6-42 nM enzyme, 37°C, triplicate
[7] = target: T6, human caspase-9 (Homo sapiens, UniProt P55211); details: Ac-P4-P3-P2-Asp-ACC substrate, 0.05-500 μM, 20-150 nM enzyme, 37°C, triplicate
T6 sequence (P55211 1-315 limits assumed): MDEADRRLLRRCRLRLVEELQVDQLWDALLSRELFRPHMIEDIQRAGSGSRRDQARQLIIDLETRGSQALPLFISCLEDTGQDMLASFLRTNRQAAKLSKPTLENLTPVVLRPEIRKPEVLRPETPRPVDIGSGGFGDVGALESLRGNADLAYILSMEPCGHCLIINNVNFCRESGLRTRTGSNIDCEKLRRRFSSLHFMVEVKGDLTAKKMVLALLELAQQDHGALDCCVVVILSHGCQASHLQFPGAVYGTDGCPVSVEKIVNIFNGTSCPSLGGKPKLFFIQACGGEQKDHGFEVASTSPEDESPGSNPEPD
T6 sequence (P55211 331-416 limits assumed): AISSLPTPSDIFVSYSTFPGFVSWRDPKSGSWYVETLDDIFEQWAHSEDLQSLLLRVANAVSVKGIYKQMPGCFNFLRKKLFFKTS

Sequence of human caspase-8 (Q14790 217-374 limits assumed): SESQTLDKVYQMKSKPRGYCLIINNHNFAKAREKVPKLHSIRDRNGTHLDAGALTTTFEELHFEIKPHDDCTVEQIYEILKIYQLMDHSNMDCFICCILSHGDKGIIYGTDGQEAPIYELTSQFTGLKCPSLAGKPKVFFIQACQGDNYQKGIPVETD
Sequence of human caspase-8 (Q14790 385-479 limits assumed): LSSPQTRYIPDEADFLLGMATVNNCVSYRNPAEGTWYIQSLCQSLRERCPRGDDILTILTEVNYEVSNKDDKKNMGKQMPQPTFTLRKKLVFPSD

| Substance | kcat/KM caspase-1 [1] | kcat/KM caspase-4 [2] | kcat/KM caspase-5 [3] | kcat/KM caspase-3 [4] | kcat/KM caspase-7 [5] | kcat/KM caspase-8 [6] | kcat/KM caspase-9 [7] |
| --- | --- | --- | --- | --- | --- | --- | --- |
| Y(Me)QTD | 105 200 M^-1s^-1 | 810 M⁻¹ s⁻¹ | 2 420 M^-1s^-1 | 8 740 M^-1s^-1 | 1 530 M^-1s^-1 | 2 670 M^-1s^-1 | 550 M⁻¹ s⁻¹ |
| Trp-Gln-Pro-Asp | 124 300 M^-1s^-1 | 3 470 M^-1s^-1 | 5 420 M^-1s^-1 | 1 410 M^-1s^-1 | 70 M⁻¹ s⁻¹ | 2 480 M^-1s^-1 | 190 M⁻¹ s⁻¹ |
| Trp(Me)-Dab-Pip-Asp | 176 200 M^-1s^-1 | 4 340 M^-1s^-1 | 3 930 M^-1s^-1 | 740 M⁻¹ s⁻¹ | 20 M⁻¹ s⁻¹ | 150 M⁻¹ s⁻¹ | 120 M⁻¹ s⁻¹ |
| Pro-Bip-His(Bzl)-Asp | 13 800 M^-1s^-1 | 590 M⁻¹ s⁻¹ | 310 M⁻¹ s⁻¹ | 1 260 M^-1s^-1 | 40 M⁻¹ s⁻¹ | 2 750 M^-1s^-1 | 6 990 M^-1s^-1 |
| [Tle][Phe(2-Cl)]HD | 31 900 M^-1s^-1 | 4 030 M^-1s^-1 | 6 990 M^-1s^-1 | 26 070 M^-1s^-1 | 350 M⁻¹ s⁻¹ | 6 220 M^-1s^-1 | 8 070 M^-1s^-1 |
| Tyr-Val-Lys(tfa)-Asp | 28 100 M^-1s^-1 | 660 M⁻¹ s⁻¹ | 1 360 M^-1s^-1 | 1 430 M^-1s^-1 | 200 M⁻¹ s⁻¹ | 1 260 M^-1s^-1 | 250 M⁻¹ s⁻¹ |
| Tle-Bpa-His(Bzl)-Asp | 25 300 M^-1s^-1 | 4 390 M^-1s^-1 | 2 650 M^-1s^-1 | 23 360 M^-1s^-1 | 100 M⁻¹ s⁻¹ | 6 400 M^-1s^-1 | 4 210 M^-1s^-1 |
| Tyr-Glu-Lys-Asp | 39 500 M^-1s^-1 | 750 M⁻¹ s⁻¹ | 3 430 M^-1s^-1 | 580 M⁻¹ s⁻¹ | 80 M⁻¹ s⁻¹ | 2 720 M^-1s^-1 | 130 M⁻¹ s⁻¹ |
| W[Tle]HD | 271 900 M^-1s^-1 | 10 640 M^-1s^-1 | 12 930 M^-1s^-1 | 600 M⁻¹ s⁻¹ | 40 M⁻¹ s⁻¹ | 1 240 M^-1s^-1 | 10 220 M^-1s^-1 |
| Tyr-Thr-Ile-Asp | 48 100 M^-1s^-1 | 510 M⁻¹ s⁻¹ | 810 M⁻¹ s⁻¹ | 9 750 M^-1s^-1 | 1 440 M^-1s^-1 | 3 260 M^-1s^-1 | 280 M⁻¹ s⁻¹ |

Source: article doi:10.1101/2025.02.11.637513v1 (bioRxiv, 2025)
